The values that follow come from ChEMBL document CHEMBL3792384, “Design, synthesis and bioactivity of novel phthalimide derivatives as acetylcholinesterase inhibitors” (Bioorg Med Chem Lett, 2016).

pIC50: −log10 of the molar value. Activity calls are given as the source filed them. The rule behind the calls is not given here.

As a reminder, the pIC50 is −log10 of the IC50, conventionally taken in molar units. Read a high pIC50 as a low IC50.

In the first test the target is Acetylcholinesterase (Electrophorus electricus, UniProt O42275). As to the kind of experiment: Inhibition of electric eel AChE preincubated for 15 mins followed by addition of acetylthiocholine iodide substrate by Ellman's method-based spectrophotometric analysis. A general note: DTNB colorimetry detects thiols as they appear.
Chain of Acetylcholinesterase (O42275 whole entry): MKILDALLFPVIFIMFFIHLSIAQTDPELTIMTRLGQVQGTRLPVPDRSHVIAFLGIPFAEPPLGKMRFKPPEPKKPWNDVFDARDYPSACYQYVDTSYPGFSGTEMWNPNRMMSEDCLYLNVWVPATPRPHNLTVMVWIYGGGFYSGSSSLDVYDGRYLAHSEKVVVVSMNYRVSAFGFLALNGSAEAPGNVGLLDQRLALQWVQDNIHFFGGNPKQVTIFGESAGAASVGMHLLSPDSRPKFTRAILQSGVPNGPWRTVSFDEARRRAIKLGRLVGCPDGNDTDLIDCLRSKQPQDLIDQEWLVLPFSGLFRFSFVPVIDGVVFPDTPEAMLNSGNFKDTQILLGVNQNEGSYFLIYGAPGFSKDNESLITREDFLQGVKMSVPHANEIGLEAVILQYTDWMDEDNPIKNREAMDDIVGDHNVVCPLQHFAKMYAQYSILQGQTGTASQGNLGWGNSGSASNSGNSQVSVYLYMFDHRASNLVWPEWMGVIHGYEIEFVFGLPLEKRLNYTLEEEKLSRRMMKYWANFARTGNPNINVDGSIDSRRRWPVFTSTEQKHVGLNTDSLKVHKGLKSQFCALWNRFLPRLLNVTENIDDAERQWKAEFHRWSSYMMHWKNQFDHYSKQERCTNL
For the compound `O=C1c2ccccc2C(=O)N1CCCCCN1CCN(Cc2ccccc2)CC1`, the pIC50 was 7.45.
In turn, `O=C1c2ccccc2C(=O)N1CCN1CCN(Cc2ccccc2)CC1` showed a negative logarithm of the IC50 (pIC50) of 7.04.
Same read-out and setting: the value for `COc1ccc(CN2CCN(CCCCCCCN3C(=O)c4ccccc4C3=O)CC2)cc1` was 6.35; that for `O=C1c2ccccc2C(=O)N1CCCCN1CCN(Cc2ccccc2)CC1` was 7.73.
On the same count and under the same terms, the value for `O=C1c2ccccc2C(=O)N1CCCCCN1CCN(Cc2ccc(Cl)cc2)CC1` was 6.14; that for `O=C1c2ccccc2C(=O)N1CCCCCCN1CCN(Cc2ccc(Cl)cc2)CC1` was 6.41.
On the same count and under the same terms, as for `COc1ccc(CN2CCN(CCN3C(=O)c4ccccc4C3=O)CC2)cc1`, the figure is 6.33; as for `O=C1c2ccccc2C(=O)N1CCCCCCCCCCN1CCN(Cc2ccccc2)CC1`, 6.46; as for `COc1ccc(CN2CCN(CCCCCCN3C(=O)c4ccccc4C3=O)CC2)cc1`, 6.16.
In turn, `COc1ccc(CN2CCN(CCCN3C(=O)c4ccccc4C3=O)CC2)cc1` had a pIC50 of 6.29.
Same read-out and setting: as for `O=C1c2ccccc2C(=O)N1CCCCCCCCCN1CCN(Cc2ccc(Cl)cc2)CC1`, the figure is 6.19; as for `O=C1c2ccccc2C(=O)N1CCCN1CCN(Cc2ccccc2)CC1`, 6.91.
Still for that read-out and setting: as for `COc1ccc(CN2CCN(CCCCN3C(=O)c4ccccc4C3=O)CC2)cc1`, the figure is 6.39; as for `O=C1c2ccccc2C(=O)N1CCCN1CCN(Cc2ccc(Cl)cc2)CC1`, 5.84.
Still for that read-out and setting: the value for `COc1ccc(CN2CCN(CCCCCCCCN3C(=O)c4ccccc4C3=O)CC2)cc1` was 6.16; that for `O=C1c2ccccc2C(=O)N1CCCCCCCCCCN1CCN(Cc2ccc(Cl)cc2)CC1` was 5.90.
`O=C1c2ccccc2C(=O)N1CCCCCCCN1CCN(Cc2ccccc2)CC1` showed a pIC50 of 7.27.
Still for that read-out and setting: the value for `O=C1c2ccccc2C(=O)N1CCCCCCCN1CCN(Cc2ccc(Cl)cc2)CC1` was 6.18; that for `O=C1c2ccccc2C(=O)N1CCCCN1CCN(Cc2ccc(Cl)cc2)CC1` was 5.85; that for `COc1ccc(CN2CCN(CCCCCN3C(=O)c4ccccc4C3=O)CC2)cc1` was 6.26.
On the same count and under the same terms, the value for `O=C1c2ccccc2C(=O)N1C/C=C/CN1CCN(Cc2ccc(Cl)cc2)CC1` was 6.42.
Still for that read-out and setting: the value for `O=C1c2ccccc2C(=O)N1C/C=C/CN1CCN(Cc2ccccc2)CC1` was 7.87; that for `COc1ccc(CN2CCN(CCCCCCCCCCN3C(=O)c4ccccc4C3=O)CC2)cc1` was 6.15.
`O=C1c2ccccc2C(=O)N1CCN1CCN(Cc2ccc(Cl)cc2)CC1` gave a pIC50 of 5.96.
Regarding `O=C1c2ccccc2C(=O)N1CCCCCCCCN1CCN(Cc2ccc(Cl)cc2)CC1`, the pIC50 was 6.36.
The same measure, in the same setting: the value for `O=C1c2ccccc2C(=O)N1CCCCCCCCCN1CCN(Cc2ccccc2)CC1` was 7.39; that for `COc1ccc(CN2CCN(C/C=C/CN3C(=O)c4ccccc4C3=O)CC2)cc1` was 6.31; that for `O=C1c2ccccc2C(=O)N1CCCCCCCCN1CCN(Cc2ccccc2)CC1` was 6.69.
On the same count and under the same terms, as for `COc1ccc(CN2CCN(CCCCCCCCCN3C(=O)c4ccccc4C3=O)CC2)cc1`, the figure is 6.18; as for `O=C1c2ccccc2C(=O)N1CCCCCCN1CCN(Cc2ccccc2)CC1`, 7.00; as for `COc1cc2c(cc1OCCCN1CCN(c3ccccc3OC)CC1)C(C)C(C)C(=O)O2` (stereo not drawn), 7.44.

For another test, the target named is Cholinesterase (Equus caballus) (UniProt P81908). As to the kind of experiment: (§1) Inhibition of equine serum BChE using butyrylthiocholine iodide as substrate by Ellman's method-based spectrophotometric analysis.
Chain of Cholinesterase (Equus caballus) (P81908 whole entry): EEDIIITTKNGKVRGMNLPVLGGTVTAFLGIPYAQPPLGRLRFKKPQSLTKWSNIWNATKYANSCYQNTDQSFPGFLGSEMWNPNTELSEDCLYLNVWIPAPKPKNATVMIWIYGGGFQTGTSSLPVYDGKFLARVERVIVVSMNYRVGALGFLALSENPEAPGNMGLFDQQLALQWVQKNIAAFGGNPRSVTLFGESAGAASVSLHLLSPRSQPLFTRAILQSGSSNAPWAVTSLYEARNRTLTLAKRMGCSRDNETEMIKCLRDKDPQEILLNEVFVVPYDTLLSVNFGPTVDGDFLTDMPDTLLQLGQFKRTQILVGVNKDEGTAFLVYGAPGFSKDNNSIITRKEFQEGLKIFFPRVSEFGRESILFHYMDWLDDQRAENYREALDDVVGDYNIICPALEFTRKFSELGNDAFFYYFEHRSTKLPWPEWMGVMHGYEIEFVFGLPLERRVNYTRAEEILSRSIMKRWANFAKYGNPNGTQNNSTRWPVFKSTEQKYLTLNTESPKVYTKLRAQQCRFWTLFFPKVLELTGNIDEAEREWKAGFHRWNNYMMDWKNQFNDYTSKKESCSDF
On to `O=C1c2ccccc2C(=O)N1CCCCCCCCN1CCN(Cc2ccccc2)CC1`, for which the inhibition result was “Active”.

For the next test, the target named is Cholinesterase (Equus caballus, UniProt P81908). Described as §1.
Chain of Cholinesterase (P81908 whole entry): as above
`O=C1c2ccccc2C(=O)N1CCCCCCCCCN1CCN(Cc2ccccc2)CC1`: the pIC50 was 7.48.
